Earlier results in patent publication US8629099B2, “Ophthalmic compositions comprising a dipeptide” (Bausch & Lomb Incorporated, priority 2008, dated 2014).

Settings: lower pKa given in text

NCC(=O)O [glycine]
pKa values (first value): 2.4
